# Where two headings read alike, the source gives them in different places.
# Legend:
# Assay type in all cases: cell-based, human
# K-562 = assay: SRB anticancer assay, leukemia; set-up: Log10GI50: unit not given here
# MALME-3M = assay: SRB anticancer assay, melanoma; set-up: Log10GI50: unit not given here
# SW-620 = assay: SRB anticancer assay, colon; set-up: Log10GI50: unit not given here
# Colon cancer cell lines = assay: SRB anticancer assay, panel result
# Description: (§1) The compounds were evaluated for anticancer activity against sixty human cancer cells derived from nine cancer types (leukemia cell line, non-small-cell lung cell line, colon cell line, CNS cell line, melanoma cell line, ovarian cell line, prostate cell line, renal cancer cell line and breast cancer cell line) as shown in Table 1. For each compound, dose response curves for each cell line were measured at a minimum of five concentrations at 10 fold dilutions. A protocol of 48 h continuous drug exposure was used and a sulforhodamine B (SRB) protein assay was used to estimate cell viability or growth.
# Breast cancer cell lines = assay: SRB anticancer assay, panel result
# Description: as §1
# [1] = tested on: Non-small cell lung cancer cell lines; assay: SRB anticancer assay, panel result
# Description: as §1
# [2] = tested on: Ovarian cancer cell lines; assay: SRB anticancer assay, panel result
# Description: as §1
# [3] = tested on: Leukemia cancer cell lines; assay: SRB anticancer assay, panel result
# Description: as §1
# CNS cancer cell lines = assay: SRB anticancer assay, panel result
# Description: as §1
# [4] = tested on: Prostate cancer cell lines; assay: SRB anticancer assay, panel result
# Description: as §1
# [5] = tested on: Melanoma cancer cell lines; assay: SRB anticancer assay, panel result
# Description: as §1
# Renal cancer cell lines = assay: SRB anticancer assay, panel result
# Description: as §1
# SNB-19 = assay: SRB anticancer assay, CNS; set-up: Log10GI50: unit not given here
# RXF 393 = assay: SRB anticancer assay, renal; set-up: Log10GI50: unit not given here
# HCT-116 = assay: SRB anticancer assay, colon; conditions: Homo sapiens, HCT-116, 48 h
# UO-31 = assay: SRB anticancer assay, renal; set-up: Log10GI50: unit not given here
# 786-0 = assay: SRB anticancer assay, renal
# BT-549 = assay: SRB anticancer assay, breast; set-up: Log10GI50: unit not given here
# DU-145 = assay: SRB anticancer assay, prostate; set-up: Log10GI50: unit not given here
# MOLT-4 = assay: SRB anticancer assay, leukemia; set-up: Log10GI50: unit not given here
# HL-60 (TB) = assay: SRB anticancer assay, leukemia; set-up: Log10GI50: unit not given here
# U251 = assay: SRB anticancer assay, CNS; set-up: Log10GI50: unit not given here
# MDA-MB-231/ATCC = assay: SRB anticancer assay, breast; set-up: Log10GI50: unit not given here; conditions: for GI50: Homo sapiens, MDA-MB-231, 48 h, 48 h, read-out: GI50
# OVCAR-5 = assay: SRB anticancer assay, ovarian; conditions: Homo sapiens, OVCAR-5, 48 h
# SNB-75 = assay: SRB anticancer assay, CNS; set-up: Log10GI50: unit not given here
# SK-MEL-2 = assay: SRB anticancer assay, melanoma
smiles,measurement,setting,value
"COc1cc(OC)cc(-c2cncn2-c2ccc(-c3nc4cc(OC)c(OC)c(OC)c4s3)cc2)c1 [Compound 7d, 2-(4-(5-(3,5-Dimethoxyphenyl)-1H-imidazol-1-yl)phenyl)-5,6,7-trimethoxybenzo[d]thiazole]",GI50,"K-562; Homo sapiens, K562, K-562, 48 h",3.57 µM
same,Log10GI50,"K-562; K-562, present compounds",−5.45
same,GI50,"MALME-3M; Homo sapiens, Malme-3M, 48 h",9.58 µM
same,Log10GI50,"MALME-3M; MALME-3M, present compounds",−5.02
same,GI50,"SW-620; Homo sapiens, SW-620, 48 h",13.7 µM
same,Log10GI50,"SW-620; SW-620, present compounds",−4.86
same,mean graph midpoint value (MG_MID) of log10 TGI,"Colon cancer cell lines; Colon panel, total inhibition of net cell growth",>−4.0
same,LC50,"Colon cancer cell lines; Homo sapiens, Colon panel, 50% net cell death, read-out: mean graph midpoint value (MG_MID) of Log10 LC50 (converted)",> 100 µM
same,GI50,"Colon cancer cell lines; Homo sapiens, Colon panel, read-out: mean graph midpoint value (MG_MID) of Log10 GI50 (converted)",9.12 µM
same,GI50,"Colon cancer cell lines; Homo sapiens, seven colon cancer cell lines, exposure at least 48 h, read-out: GI50, range over the panel",3.76 to 13.7 µM
same,mean graph midpoint value (MG_MID) of log10 TGI,"Breast cancer cell lines; Breast panel, total inhibition of net cell growth",>−4.0
same,CC50,"Breast cancer cell lines; Homo sapiens, Breast panel, 50% net cell death, read-out: mean graph midpoint value (MG_MID) of Log10 LC50 (converted)",> 100 µM
same,GI50,"Breast cancer cell lines; Homo sapiens, Breast panel, read-out: mean graph midpoint value (MG_MID) of Log10 GI50 (converted)",9.12 µM
same,GI50,"Breast cancer cell lines; Homo sapiens, six breast cancer cell lines, exposure at least 48 h, read-out: GI50, range over the panel",4.02 to 20.9 µM
same,LC50,"[1]; Homo sapiens, Non-small cell lung panel, 50% net cell death, read-out: mean graph midpoint value (MG_MID) of Log10 LC50 (converted)",> 100 µM
same,GI50,"[1]; Homo sapiens, Non-small cell lung panel, read-out: mean graph midpoint value (MG_MID) of Log10 GI50 (converted)",15.1 µM
same,GI50,"[1]; Homo sapiens, nine Non-small cell lung cancer cell lines, exposure at least 48 h, read-out: GI50, range over the panel",1.87 to 86.5 µM
same,mean graph midpoint value (MG_MID) of log10 TGI,"[1]; Non-small cell lung panel, total inhibition of net cell growth",>−4.0
same,LC50,"[2]; Homo sapiens, Ovarian panel, 50% net cell death, read-out: mean graph midpoint value (MG_MID) of Log10 LC50 (converted)",> 100 µM
same,GI50,"[2]; Homo sapiens, Ovarian panel, read-out: mean graph midpoint value (MG_MID) of Log10 GI50 (converted)",16.2 µM
same,GI50,"[2]; Homo sapiens, seven ovarian cancer cell lines, exposure at least 48 h, read-out: GI50, range over the panel",6.07 to 49.9 µM
same,mean graph midpoint value (MG_MID) of log10 TGI,"[2]; Ovarian panel, total inhibition of net cell growth",−4.08
same,LC50,"[3]; Homo sapiens, Leukemia panel, 50% net cell death, read-out: mean graph midpoint value (MG_MID) of Log10 LC50 (converted)",> 100 µM
same,GI50,"[3]; Homo sapiens, Leukemia panel, read-out: mean graph midpoint value (MG_MID) of Log10 GI50 (converted)",3.72 µM
same,GI50,"[3]; Homo sapiens, six leukemia cancer cell lines, exposure at least 48 h, read-out: GI50, range over the panel",2.43 to 7.14 µM
same,mean graph midpoint value (MG_MID) of log10 TGI,"[3]; Leukemia panel, total inhibition of net cell growth",>−4.0
same,mean graph midpoint value (MG_MID) of log10 TGI,"CNS cancer cell lines; CNS panel, total inhibition of net cell growth",−4.11
same,CC50,"CNS cancer cell lines; Homo sapiens, CNS panel, 50% net cell death, read-out: mean graph midpoint value (MG_MID) of Log10 LC50 (converted)",> 100 µM
same,GI50,"CNS cancer cell lines; Homo sapiens, CNS panel, read-out: mean graph midpoint value (MG_MID) of Log10 GI50 (converted)",12 µM
same,GI50,"CNS cancer cell lines; Homo sapiens, six CNS cancer cell lines, exposure at least 48 h, read-out: GI50, range over the panel",3.64 to 22.1 µM
same,LC50,"[4]; Homo sapiens, Prostate panel, 50% net cell death, read-out: mean graph midpoint value (MG_MID) of Log10 LC50 (converted)",> 100 µM
same,GI50,"[4]; Homo sapiens, Prostate panel, read-out: mean graph midpoint value (MG_MID) of Log10 GI50 (converted)",10 µM
same,GI50,"[4]; Homo sapiens, two prostate cancer cell lines (PC-3, DU-145), exposure at least 48 h, read-out: GI50, range over the panel",3.17 to 31.1 µM
same,mean graph midpoint value (MG_MID) of log10 TGI,"[4]; Prostate panel, total inhibition of net cell growth",>−4.0
same,LC50,"[5]; Homo sapiens, Melanoma panel, 50% net cell death, read-out: mean graph midpoint value (MG_MID) of Log10 LC50 (converted)",> 100 µM
same,GI50,"[5]; Homo sapiens, Melanoma panel, read-out: mean graph midpoint value (MG_MID) of Log10 GI50 (converted)",9.33 µM
same,GI50,"[5]; Homo sapiens, nine melanoma cancer cell lines, exposure at least 48 h, read-out: GI50, range over the panel",2.85 to 31.6 µM
same,mean graph midpoint value (MG_MID) of log10 TGI,"[5]; Melanoma panel, total inhibition of net cell growth",−4.02
same,CC50,"Renal cancer cell lines; Homo sapiens, Renal panel, 50% net cell death, read-out: mean graph midpoint value (MG_MID) of Log10 LC50 (converted)",> 100 µM
same,GI50,"Renal cancer cell lines; Homo sapiens, Renal panel, read-out: mean graph midpoint value (MG_MID) of Log10 GI50 (converted)",14.8 µM
same,GI50,"Renal cancer cell lines; Homo sapiens, eight renal cancer cell lines, exposure at least 48 h, read-out: GI50, range over the panel",1.94 to 31.9 µM
same,mean graph midpoint value (MG_MID) of log10 TGI,"Renal cancer cell lines; Renal panel, total inhibition of net cell growth",−4.03
same,GI50,"SNB-19; Homo sapiens, SNB-19, 48 h",19.7 µM
same,Log10GI50,"SNB-19; SNB-19, present compounds",−4.70
same,GI50,"RXF 393; Homo sapiens, RXF 393, 48 h",30.2 µM
same,Log10GI50,"RXF 393; RXF 393, present compounds",−4.52
same,GI50,HCT-116,3.76 µM
same,GI50,"UO-31; Homo sapiens, UO-31, 48 h",1.94 µM
same,Log10GI50,"UO-31; UO-31, present compounds",−5.71
same,Log10GI50,"786-0; 786-0, present compounds",−4.99 log10 M
same,GI50,"786-0; Homo sapiens, 786-0, 48 h",10.3 µM
same,Log10GI50,"BT-549; BT-549, present compounds",−5.17
same,GI50,"BT-549; Homo sapiens, BT-549, 48 h",4.74 µM
same,Log10GI50,"DU-145; DU-145, present compounds",−4.51
same,GI50,"DU-145; Homo sapiens, DU-145, 48 h",31.1 µM
same,GI50,"MOLT-4; Homo sapiens, MOLT-4, 48 h",4.11 µM
same,Log10GI50,"MOLT-4; MOLT, present compounds",−5.39
same,Log10GI50,"HL-60 (TB); HL-60(TB), present compounds",−5.61
same,GI50,"HL-60 (TB); Homo sapiens, HL-60, 48 h",2.43 µM
same,GI50,"U251; Homo sapiens, U-251, U251, 48 h",5.44 µM
same,Log10GI50,"U251; U251, present compounds",−5.26
same,GI50,MDA-MB-231/ATCC; MDA-MB-231/ATCC (row head MDA-MB-),19.2 µM
same,GI50,MDA-MB-231/ATCC; row head printed 231/ATCC (second line of MDA-MB-231/ATCC),20.9 µM
same,Log10GI50,"MDA-MB-231/ATCC; MDA-MB-231/ATCC, present compounds",−4.72
same,GI50,OVCAR-5,> 100 µM
same,GI50,"SNB-75; Homo sapiens, SNB-75, 48 h",15 µM
same,Log10GI50,"SNB-75; SNB-75, present compounds",−4.82
same,GI50,"SK-MEL-2; Homo sapiens, SK-MEL-2, 48 h",6.16 µM
same,Log10GI50,"SK-MEL-2; SK-MEL-2, present compounds",−5.21 M

# — patent US9187467B2, “2-phenyl benzothiazole linked imidazole compounds as potential anticancer agents and process for the preparation thereof” (Council of Scientific and Industrial Research, priority 2012, dated 2015)
